pIC50: −log10 of the molar value. Like-named read-outs stand apart in the source and are kept apart here. Marks after values point to notes of the source that are not given here.
Legend:
[1] = target: T1, ERβ (Homo sapiens, UniProt Q92731); experiment: Effect of translational inhibition (CHX) on modulation of ERβ protein levels in MCF7 cells; format: cell-based; design: although both cell lines express ERα and ERβ, MCF7 has a high ERα/ERβ ratio; endogenous in cells; host or cells: MCF7
[2] = target: T2, ERα (Homo sapiens, UniProt P03372); experiment: Effect of translational inhibition (CHX) on modulation of ERα protein levels in MCF7 cells; format: cell-based; design: although both cell lines express ERα and ERβ, MCF7 has a high ERα/ERβ ratio; endogenous in cells; host or cells: MCF7; conditions: 1 nM CHX, over the concentrations tested
T2 sequence (P03372 1-595): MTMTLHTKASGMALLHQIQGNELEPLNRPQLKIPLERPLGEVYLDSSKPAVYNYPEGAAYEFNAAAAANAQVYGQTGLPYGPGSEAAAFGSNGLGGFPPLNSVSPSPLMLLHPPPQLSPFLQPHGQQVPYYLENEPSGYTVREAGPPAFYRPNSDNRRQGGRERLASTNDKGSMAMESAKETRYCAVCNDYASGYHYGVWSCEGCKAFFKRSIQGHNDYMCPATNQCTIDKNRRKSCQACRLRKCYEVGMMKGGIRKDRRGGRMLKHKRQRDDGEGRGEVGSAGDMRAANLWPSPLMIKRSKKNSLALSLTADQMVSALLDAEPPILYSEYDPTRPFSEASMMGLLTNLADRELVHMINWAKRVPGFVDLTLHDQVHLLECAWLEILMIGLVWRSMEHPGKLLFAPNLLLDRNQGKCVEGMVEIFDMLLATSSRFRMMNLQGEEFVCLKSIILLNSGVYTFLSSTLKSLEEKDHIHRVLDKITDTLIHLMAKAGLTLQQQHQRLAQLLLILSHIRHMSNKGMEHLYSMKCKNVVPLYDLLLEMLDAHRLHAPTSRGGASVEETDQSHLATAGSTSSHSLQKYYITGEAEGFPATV

[3] = target: T2, ERα; experiment: Effect of translational inhibition (CHX) on modulation of ERα protein levels in T47D cells; format: cell-based; design: endogenous in cells; conditions: 1 nM CHX, over the concentrations tested
[4] = target: T1, ERβ; experiment: Western blot, dose-response modulation of ERβ protein levels in MCF7 cells; format: cell-based; design: although both cell lines express ERα and ERβ, MCF7 has a high ERα/ERβ ratio; endogenous in cells; host or cells: MCF7; conditions: 24 h, relative to vehicle (DMSO) = 100%
[5] = target: T2, ERα; experiment: Western blot, dose-response modulation of ERα protein levels in T47D cells; format: cell-based; design: endogenous in cells; conditions: 24 h; for Efficacy, ERα (AVG % ER remaining ± SD): relative to vehicle (DMSO) = 100%
[6] = target: T1, ERβ; experiment: Effect of translational inhibition (CHX) on modulation of ERβ protein levels in T47D cells; format: cell-based; design: endogenous in cells; conditions: 1 nM CHX, over the concentrations tested
[7] = target: T2, ERα; experiment: Western blot, dose-response modulation of ERα protein levels in MCF7 cells; format: cell-based; design: although both cell lines express ERα and ERβ, MCF7 has a high ERα/ERβ ratio; endogenous in cells; host or cells: MCF7; conditions: 24 h; for Efficacy, ERα (AVG % ER remaining ± SD): relative to vehicle (DMSO) = 100%, maximal response of fitted dose-response curve
[8] = target: T1, ERβ; experiment: Western blot, dose-response modulation of ERβ protein levels in T47D cells; format: cell-based; design: endogenous in cells; conditions: 24 h, relative to vehicle (DMSO) = 100%
[9] = target: T1, ERβ; design: although both cell lines express ERα and ERβ, MCF7 has a high ERα/ERβ ratio; endogenous in cells; host or cells: MCF7; conditions: cited from earlier work
[10] = tested on: ERα; conditions: T47D, cited from earlier work; for Effect on ERα protein levels: 24 h, 1 nM E2, 1 μM 4-OHT, ref Power and Thompson (2003)
[11] = tested on: ERα; conditions: MCF7, cited from earlier work; for ERα protein levels downregulated: 48 h, 1 nM E2, 100 nM fulvestrant, 1 μM 4-OHT, ref Garner et al. (2015); for ERα protein levels downregulated to: after 6 h, 100 nM, ref Yeh et al. (2013)
[12] = target: T1, ERβ; design: endogenous in cells; method as in Power and Thompson (2003); conditions: T47D; 1 nM E2, 24 h 1 μM 4-OHT; ref Power and Thompson (2003); cited from earlier work
[13] = MCF7, 1 nM CHX, over the concentrations tested
[14] = MCF7, 1 nM E2, 1 μM fulvestrant, ref Mishra et al. (2016)
[15] = MCF7 cells transfected with an ERβ expression vector, 10 nM, ref Peekhaus et al. (2004)
[16] = MCF7, 1 nM E2, 24 h 1 μM 4-OHT, ref Power and Thompson (2003)

T1 sequence (Q92731 whole entry): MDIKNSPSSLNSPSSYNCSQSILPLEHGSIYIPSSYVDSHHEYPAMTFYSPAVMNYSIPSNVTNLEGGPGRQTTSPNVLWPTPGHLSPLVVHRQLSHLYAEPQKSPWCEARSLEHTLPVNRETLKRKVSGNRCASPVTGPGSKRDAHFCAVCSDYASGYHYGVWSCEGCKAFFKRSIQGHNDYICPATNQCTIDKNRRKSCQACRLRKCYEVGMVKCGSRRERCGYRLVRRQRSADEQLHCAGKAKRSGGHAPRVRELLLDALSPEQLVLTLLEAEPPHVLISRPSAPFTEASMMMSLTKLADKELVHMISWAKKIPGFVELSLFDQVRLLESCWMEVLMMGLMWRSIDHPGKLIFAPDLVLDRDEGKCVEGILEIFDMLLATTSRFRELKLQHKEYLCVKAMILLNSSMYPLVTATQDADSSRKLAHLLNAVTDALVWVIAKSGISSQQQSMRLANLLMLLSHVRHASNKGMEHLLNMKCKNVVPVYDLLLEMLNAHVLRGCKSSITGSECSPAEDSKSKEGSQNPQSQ

Compound | Change in ERβ protein levels on addition of CHX [1, 13] | Change in ERα protein levels on addition of CHX [2] | Change in ERα protein levels on addition of CHX [3] | Efficacy, ERβ (AVG % ER remaining ± SD) [4] | Efficacy, ERα (AVG % ER remaining ± SD) [5] | Change in ERβ protein levels on addition of CHX [6] | Efficacy, ERα (AVG % ER remaining ± SD) [7] | Efficacy, ERβ (AVG % ER remaining ± SD) [8] | Effect on ERβ protein levels [9, 14] | Effect on ERβ protein levels [9, 15] | ERα protein levels downregulated [11] | ERα protein levels downregulated to [11] | Effect on ERβ protein levels [9, 16] | Effect on ERα protein levels [10] | Effect on ERβ protein levels [12] | further results
Cc1c(-c2ccc(O)cc2)nn(-c2ccc(O)cc2)c1-c1ccc(OCCN2CCCCC2)cc1 [MPP, methylpiperidinopyrazole] | 1.1 fold | 1.1 fold | no significant difference | 122.0 ± 2.3^b*** % | 115.7 ± 3.4^b** % | no significant difference | 120.9 ± 3.0^b*** % | 108.0 ± 2.1^b*** % | – | – | – | – | – | – | – | –
C[C@]12CC[C@@H]3c4ccc(O)cc4C[C@@H](CCCCCCCCC[S+]([O-])CCCC(F)(F)C(F)(F)F)[C@H]3[C@@H]1CC[C@@H]2O (stereo partly shown) [Ful, fulvestrant] | not significantly altered | – | – | 127.1 ± 9.6^b*** % | 64.1 ± 20.9^a % | 1.2 fold | 46.8 ± 6.8^a % | 134.1 ± 4.8^b*** % | upregulated | upregulated | 100% | 35% | – | – | – | ERα protein levels downgraded ([10]; concentration range 0.03–1 μM, ref Liu et al. (2016)): more than 50%; Efficacy of downregulation of ERα protein levels ([11]; 1 μM, 4 h, ref Joseph et al. (2016)): 6.4%; pIC50 ([11]; ref Joseph et al. (2016), read-out: Potency of downregulation of ERα protein levels): 9.41
O=C1C[C@@H](c2ccc(O)cc2)Oc2cc(O)ccc21 [Liq, liquiritigenin] | – | no significant difference | no significant difference | – | 87.5 ± 2.5^b ^, ^c % | – | 65.9 ± 10.9^a % | – | – | – | – | – | – | – | – | Potency, ERα (AVG IC50 in Log μg/mL ± SD) [5]: −9.8 ± 1.0^a ^, ^c** Log μg/mL; Potency, ERα (AVG IC50 in Log μg/mL ± SD) [7]: −1.9 ± 0.8^b**** Log μg/mL
C[C@]12CC[C@@H]3c4ccc(O)cc4CC[C@H]3[C@@H]1CC[C@@H]2O [E2, 17β-estradiol] | – | – | – | 53.3 ± 5.6^a % | – | – | – | 58.7 ± 9.0^a % | downregulated | downregulated | 100% | 35% | significantly upregulated | no effect | significantly upregulated | Effect on ERα protein levels ([11]; 24 h, 1 nM E2, 1 μM 4-OHT, ref Power and Thompson (2003)): downregulated
CC/C(=C(\c1ccc(O)cc1)c1ccc(OCCN(C)C)cc1)c1ccccc1 [4-OHT, (2)-4-hydroxytamoxifen] | – | – | – | 142.9 ± 8.2^b*** % | – | – | – | 151.8 ± 10.8^b*** % | – | – | – | – | significantly upregulated | upregulate | significant downregulation | Change in ERβ protein levels on addition of CHX [1]: not significantly altered
